According to paper PMC8206213, “An L-2-hydroxyglutarate biosensor based on specific transcriptional regulator LhgR” (Nature Communications, 2021):
Values joined by “and” are separate entries in the source; they are usually repeats but may differ in a detail not shown here. Identical values can stand only once.

How the values were obtained:
[1] = system: LHGFR0N7C; experiment: Influence of other compounds on the response of purified LHGFR0N7C to L-2-HG; format: binding, Pseudomonas putida W619; details: Suppl. Fig. 9b; L-2-HG alone or with the compound; three replicates
Experimental: (§1) Purified L-2-HG biosensors and different compounds were diluted by 50 mM Tris-HCl buffer (pH 7.4), mixed together in a black 96-well plate at a volume ratio of 3:1, and the fluorescence intensities were measured using an EnSight microplate reader (PerkinElmer, USA) with excitation at 430 nm, emission at 485 nm (mTFP) and 528 nm (Venus). […] The [L-2-HG], Kd, and p refer to the L-2-HG concentration, apparent dissociation constant, and Hill slope, respectively. Emission spectra were recorded at 430 nm excitation, in steps of 2 nm. Excitation spectra were recorded using emission at 550 nm, excitation from 380 to 535 nm in steps of 2 nm.

[2] = system: LHGFR3N7C expressed in E. coli BL21(DE3); experiment: Control biosensor LHGFR3N7C expressed in E. coli, response to added compounds; format: cell-based; details: Supplementary Fig. 14a
Experimental: (§2) To characterize the sensitivity and specificity of LHGFR expressed in E. coli BL21(DE3), 90 μL cell suspensions following 8 h carbon starvation were mixed with 10 μL increasing concentrations of L-2-HG or other compounds, and then added into a black 96-well plate (total 100 μL/per well), the fluorescence intensities were determined using an EnSight microplate reader (PerkinElmer, USA) and the following instrument settings: excitation at 430 nm, emission at 485 nm (mTFP) and 528 nm (Venus), time intervals of 5 min, the temperature at 37 °C, and shake at 180 rpm.

[3] = system: LHGFR0N3C expressed in HEK293FT cells; experiment: Specificity of LHGFR0N3C expressed in permeabilized HEK293FT cells, 1 mM compounds; format: cell-based, human (HEK293FT cells); details: 1 mM compound, cells permeabilized with 10 μM digitonin, normalized to control
Experimental: (§3) To characterize the sensitivity and specificity of LHGFR expressed in HEK293FT cells, cells were trypsinized 48 h following transfection and suspended in 1× Hank’s balanced salt solution supplemented with 20 mM HEPES. […] Digitonin at a concentration of 10 μM was used to induce cell permeabilization and deplete intracellular L-2-HG for in vivo response curves construction. Then, the fluorescence intensities were determined by a SpectraMax i3 fluorescence plate reader (Molecular Devices, USA) with excitation at 430 nm and emission at 485 nm (mTFP) and 528 nm (Venus). Basal L-2-HG concentration in HEK293FT cells under physiological conditions was determined by substituting the emission ratios of non-permeabilized HEK293FT cells into the calibrated in vivo response curves.

[4] = system: LHGFR0N3C; experiment: Specificity of purified LHGFR0N3C, emission ratio with 240 μM compounds; format: binding, Pseudomonas putida W619; details: 240 μM compound
Experimental: as §1

[5] = system: LHGFR0N7C expressed in HEK293FT cells; experiment: Specificity of LHGFR0N7C expressed in permeabilized HEK293FT cells, 1 mM compounds; format: cell-based, human (HEK293FT cells); details: Supplementary Fig. 17d; Control about 1
Experimental: as §3

[6] = system: LHGFR0N7C expressed in E. coli BL21(DE3); experiment: Specificity of LHGFR0N7C expressed in E. coli BL21(DE3), 1 mM compounds; format: cell-based; details: Supplementary Fig. 13c
Experimental: as §2

[7] = system: LhgO; experiment: Enzymatic assay of LhgO in crude extracts of P. putida KT2440 derivatives grown on different carbon sources (induction of lhgO under LhgR control); format: cell-based, Pseudomonas putida
Experimental: The cells were harvested at mid-log phase, washed twice and resuspended in phosphate-buffered saline (PBS), then lysed by sonication on ice after the addition of 1 mM phenylmethylsulfonyl fluoride (PMSF). […] Protein concentrations of the supernatants were determined using the Bradford protein assay kit (Sangon, China). […] The 800 μL reaction solution contained 0.1 mM […], 0.05 mM DCPIP, 0.2 mM phenazine methosulfate (PMS) in PBS and 40 μL crude extracts.

[8] = system: LhgR; experiment: EMSA, effect of compounds on LhgR binding to the lhgO promoter region F1; parameters: species or system Pseudomonas putida W619; details: 50 mM compound, 10 nM F1, 60 nM LhgR
Experimental: Electrophoretic mobility shift assays (EMSAs) were carried out using the DNA fragment (F1 or F2) and purified LhgR. The DNA fragments were first amplified by primer pairs F1-F/F1-R and F2-F/F2-R, respectively. Then, either fragment at a concentration of 10 nM DNA was incubated with LhgR (0–160 nM) in 20 μL EMSA binding buffer (10 mM Tris-HCl [pH 7.4], 50 mM KCl, 0.5 mM EDTA, 10% [vol/vol] glycerol, and 1 mM dithiothreitol [DTT]). The binding reactions were carried out at 30 °C for 30 min. Electrophoresis was performed on 6% native polyacrylamide gels at 4 °C and 170 V (constant voltage) for about 45 min, followed by staining with SYBR green I (TaKaRa, China) and photographing. Analysis of the interaction between lhgO promoter region (F1) and LHGFR was performed using the same procedure.
To characterize the effector of LhgR, purified LhgR was first incubated with L-lysine, 5-aminovalerate, glutarate, L-2-HG, D-2-HG, 2-KG, or succinate at 30 °C for 15 min, followed by incubation with the added DNA fragments at 30 °C for 30 min. The mixtures were subsequently subjected to electrophoresis.

Question: For `O=C(O)CC[C@@H](O)C(=O)O` [D-2-HG], which Emission ratio [1] is on record?
Answer: Its Emission ratio is 2.616 and 2.6121 and 2.633.

Question: And the “normalized emission ratio of control biosensor expressed in E. coli” value ([2]; time 0 min)?
Answer: The value was 1.02 and 1.012 and 1.01 and 1.0239.

Question: And the “normalized emission ratio of control biosensor expressed in E. coli” value ([2]; time 5 min)?
Answer: The value was 1.007 and 1.013 and 1.012 and 1.022.

Question: And the “normalized emission ratio of control biosensor expressed in E. coli” value ([2]; time 10 min)?
Answer: Its value is 1.011 and 1.012 (2×) and 1.02.

Question: What about the “normalized emission ratio of control biosensor expressed in E. coli” value ([2]; time 15 min) of the same compound?
Answer: Its value is 1.008 and 1.007 and 1.013 and 1.022.

Question: And the “normalized emission ratio of control biosensor expressed in E. coli” value ([2]; time 20 min)?
Answer: Its value is 1.004 and 1.013 and 1.022 and 1.028.

Question: What about the “normalized emission ratio of control biosensor expressed in E. coli” value ([2]; time 25 min) of the same compound?
Answer: The value was 1.0101 and 1.011 and 1.02 and 1.024.

Question: And the “normalized emission ratio of control biosensor expressed in E. coli” value ([2]; time 30 min)?
Answer: Its value is 1.007 and 1.022 and 1.016 and 1.027.

Question: What about the “normalized emission ratio of control biosensor expressed in E. coli” value ([2]; time 35 min) of the same compound?
Answer: The value was 1.021 and 1.0176 and 1.025 and 1.027.

Question: And the “normalized emission ratio of control biosensor expressed in E. coli” value ([2]; time 40 min)?
Answer: The value was 1.019 (2×) and 1.013 and 1.028.

Question: What about the “normalized emission ratio of control biosensor expressed in E. coli” value ([2]; time 45 min) of the same compound?
Answer: Its value is 1.015 and 1.017 and 1.0244 and 1.023.

Question: What about the “normalized emission ratio of control biosensor expressed in E. coli” value ([2]; time 50 min) of the same compound?
Answer: Its value is 1.007 and 1.012 and 1.0275 and 1.019.

Question: What about the “normalized emission ratio of control biosensor expressed in E. coli” value ([2]; time 55 min) of the same compound?
Answer: Its value is 1.011 (2×) and 1.037 and 1.027.

Question: What about the “normalized emission ratio of control biosensor expressed in E. coli” value ([2]; time 60 min) of the same compound?
Answer: The value was 1.016 and 1.014 and 1.0182 and 1.0226.

Question: What about the “normalized emission ratio of control biosensor expressed in E. coli” value ([2]; time 65 min) of the same compound?
Answer: The value was 1.014 and 1.022 and 1.029 and 1.023.

Question: What about the “normalized emission ratio of control biosensor expressed in E. coli” value ([2]; time 70 min) of the same compound?
Answer: Its value is 1.021 and 1.015 and 1.038 and 1.03.

Question: What about the “normalized emission ratio of control biosensor expressed in E. coli” value ([2]; time 75 min) of the same compound?
Answer: Its value is 1.0229 and 1.021 and 1.034 and 1.027.

Question: What about the “normalized emission ratio of control biosensor expressed in E. coli” value ([2]; time 80 min) of the same compound?
Answer: Its value is 1.027 and 1.023 and 1.038 (2×).

Question: And the “normalized emission ratio of control biosensor expressed in E. coli” value ([2]; time 85 min)?
Answer: The value was 1.021 and 1.027 and 1.032 and 1.0274.

Question: What about the “normalized emission ratio of control biosensor expressed in E. coli” value ([2]; time 90 min) of the same compound?
Answer: The value was 1.0277 and 1.033 and 1.04 and 1.032.

Question: And the Normalized emission ratio [3]?
Answer: Its Normalized emission ratio is 1.056 and 1.057 and 1.069.

Question: What about the Emission ratio [4] of the same compound?
Answer: Its Emission ratio is 1.4562 and 1.441 and 1.426.

Question: And the Normalized emission ratio [5]?
Answer: The Normalized emission ratio was 1.116 and 1.067 and 1.082.

Question: And the “normalized emission ratio of biosensor expressed in E. coli” value (“normalized emission ratio of biosensor” below) ([6]; time 0 min)?
Answer: Its value is 1.005 and 1.001 and 1.025.

Question: What about the “normalized emission ratio of biosensor” value ([6]; time 5 min) of the same compound?
Answer: Its value is 1.058 and 1.062 and 1.055.

Question: And the “normalized emission ratio of biosensor” value ([6]; time 10 min)?
Answer: The value was 1.088 and 1.077 and 1.073.

Question: What about the “normalized emission ratio of biosensor” value ([6]; time 15 min) of the same compound?
Answer: Its value is 1.099 and 1.097 and 1.073.

Question: And the “normalized emission ratio of biosensor” value ([6]; time 20 min)?
Answer: Its value is 1.1106 and 1.107 and 1.081.

Question: What about the “normalized emission ratio of biosensor” value ([6]; time 25 min) of the same compound?
Answer: Its value is 1.121 and 1.111 and 1.082.

Question: And the “normalized emission ratio of biosensor” value ([6]; time 30 min)?
Answer: Its value is 1.109 and 1.1104 and 1.081.

Question: And the “normalized emission ratio of biosensor” value ([6]; time 35 min)?
Answer: The value was 1.129 and 1.12 and 1.084.

Question: What about the “normalized emission ratio of biosensor” value ([6]; time 40 min) of the same compound?
Answer: Its value is 1.119 and 1.117 and 1.099.

Question: What about the “normalized emission ratio of biosensor” value ([6]; time 45 min) of the same compound?
Answer: The value was 1.1243 and 1.118 and 1.09.

Question: And the “normalized emission ratio of biosensor” value ([6]; time 50 min)?
Answer: The value was 1.133 and 1.117 and 1.095.

Question: And the “normalized emission ratio of biosensor” value ([6]; time 55 min)?
Answer: Its value is 1.1262 and 1.1195 and 1.107.

Question: And the “normalized emission ratio of biosensor” value ([6]; time 60 min)?
Answer: The value was 1.117 and 1.122 and 1.102.

Question: What about the “normalized emission ratio of biosensor” value ([6]; time 65 min) of the same compound?
Answer: The value was 1.12 and 1.121 and 1.101.

Question: What about the “normalized emission ratio of biosensor” value ([6]; time 70 min) of the same compound?
Answer: The value was 1.122 and 1.126 and 1.113.

Question: What about the “normalized emission ratio of biosensor” value ([6]; time 75 min) of the same compound?
Answer: The value was 1.124 and 1.132 and 1.112.

Question: What about the “normalized emission ratio of biosensor” value ([6]; time 80 min) of the same compound?
Answer: Its value is 1.131 and 1.12 and 1.117.

Question: What about the “normalized emission ratio of biosensor” value ([6]; time 85 min) of the same compound?
Answer: The value was 1.127 and 1.1355 and 1.123.

Question: What about the “normalized emission ratio of biosensor” value ([6]; time 90 min) of the same compound?
Answer: The value was 1.127 and 1.137 and 1.122.

Question: What about the LhgO activity ([7]; crude extract of DcsiRDlhgO-pME6032 grown in MSM with the compound as sole carbon source) of the same compound?
Answer: Its LhgO activity is 7.06E-04 and 6.93E-04 and 7.09E-04.

Question: What about the “Induction of lhgO expression / effector molecule of LhgR” value ([7]; gene segment F2-lhgR-F1-lhgO in P. putida KT2440 derivatives) of the same compound?
Answer: Its value is “neither D-2-HG nor glutarate can serve as the effector molecule of LhgR”.

Question: And the “Effect on LhgR binding to the lhgO promoter region F1” value [8]?
Answer: The value was “observed only in the presence of L-2-HG”.
